Results reported in US9868973B2, “Method for optimizing post-translational modifications on recombinant proteins” (STC Biologics, Inc., priority 2014, dated 2018).

Tested on: fucosyl transferase
Assay: Modulation of glycosylation PTMs of trastuzumab biosimilar in CHO cells by FTI (Methods 1 and 2), 2AB glycan analysis
Type: cell-based, Chinese Hamster
Experimental: To obtain a recipe for production of a biosimilar with a similar glycosylation pattern to the original Herceptin®, CHO cells engineered to express the recombinant protein with an amino acid sequence identical to trastuzumab were first grown in the growth media without any inhibitors to establish a Baseline. The glycan species were analyzed using 2AB glycan method. It was observed that Peak 2 (G0) and Peak 6 (G1), and Peak 7 (mannose-5 and G1′) PTMs were lower for the biosimilar than their target PTMs.
G0, G1 and G1′ PTMs are non-fucosylated PTMs and are controlled by a host protein called fucosyl transferase and the mannose-5 PTM is controlled by the host protein known as α-mannosidase I. Fucosyl transferase can be inhibited by a variety of fucosyltransferase inhibitors shown in FIG. 2, α-mannosidase I can be inhibited by kifunensine.
Briefly to obtain trastuzumab with PTMs in the target range, cells were placed in growth media and treated with 2F-Peracetyl-Fucose (FTI) on day 7 at different concentrations (20 μM, 10 μM, 5 μM, 1 μM, 0.1 μM) to identify optimal drug concentration. On day 12 cells were harvested and the trastuzumab biosimilar isolated. […] FTI concentrations used to reach target PTMs are cell specific so it is expected that different concentrations of the FTI or other modulators would be required when a starting cell line is different from the one described in this example.
Different treatment methods such as Method 2 can be used to obtain target PTMs. For example, FTI can be added on a daily basis starting on day 5 (Table 3, Method 2) rather than on Day 7.

[1] = Method 1: 10 μM FTI on Day 7, trastuzumab biosimilar from CHO cells
[2] = Method 2: […]-[…] FTI every day starting at day 5, trastuzumab biosimilar from CHO cells

## CC(=O)OC1O[C@@H](C)[C@@H](OC(C)=O)[C@@H](OC(C)=O)[C@@H]1F (stereo partly shown) [FTI, 2F-Peracetyl-Fucose]
10 μM FTI on day 7, harvest day 12
  G0, G1 and G1′ PTM levels versus target PTM range: matched the target PTM range
20 μM FTI on day 7, harvest day 12
  G0, G1 and G1′ PTM levels versus target PTMs: increase of G0, G1 and G1′ PTMs above that of target PTMs
FTI at concentrations lower than 8 μM, day 7
  PTMs versus target range: outside the target range
[1]
  Glycan Species Peak 1: 1.5%
  Glycan Species Peak 2-G0: 4%
  Glycan Species Peak 3: 1.5%
  Glycan Species Peak 4-G0F: 44%
  Glycan Species Peak 5: 0.8%
  Glycan Species Peak 6-G1: 1.8%
  Glycan Species Peak 7- G1F/mannose 5: 1.2%
  Glycan Species Peak 8- (1, 6)G1F: 26%
  Glycan Species Peak 9 (1, 3)G1F: 11%
  Glycan Species Peak 10 G2F: 6.5%
  Glycan Species Peak 11: 0.2%
  Glycan Species Peak 12: 0.25%
  Glycan Species Peak 13: 0.2%
  Glycan Species Peak 14: 0.2%
  Glycan Species Peak 15: 0.2%
[2]
  Glycan Species Peak 4-G0F: 44%
  Glycan Species Peak 8- (1, 6)G1F: 26%
  Glycan Species Peak 9 (1, 3)G1F: 11%
  Glycan Species Peak 10 G2F: 6.5%
